# Assays:
# Assay type in all cases: cell-based
# [1] = system: Fomitopsis palustris; assay: Degradation of dioxin in fungal culture, measured with a dioxin immunoassay kit; settings: F. palustris culture (negative control fungus), 0.5 ppm, cultured 20 days, attributed to non-specific binding to fungal cells
# Protocol: (§1) Pleurotus pulumonairus, which has proven to cause the most intense fluorescence in Examples 3 and 4, was examined for its ability to degrade dioxin.
# (§2) As in Examples 3 and 4, Pleurotus pulumonairus was cultured in a culture medium containing glucose and peptone and, on day 7, 2,3,7,8-tetrachlorodioxin was added to the medium at a final concentration of 0.5 ppm. The fungus was subsequently cultured for 20 days. After the culturing period, the culture medium containing the fungus was freeze-dried and was subjected to extraction by refluxing with hexane. Hexane was then removed by distillation and the remaining culture was diluted 200-fold with 200 ml methanol containing 100 ppm Triton X-100. Using a High Performance Dioxin Immunoassay Kit (Cape Technologies, United States) according to the manufacturer's instruction, the concentration of dioxin was measured to determine the degradation rate of dioxin. A control shown in Table 2 is the above-described culture medium with only 2,3,7,8-tetrachlorodioxin added. Fomitopsis palustris was used as a negative control.
# [2] = system: Pleurotus pulumonairus; assay: as above; settings: P. pulumonairus culture; 0.5 ppm; cultured 20 days; control medium without fungus 0%
# Protocol: as §1, §2
# [3] = system: Fomitopsis palustris; assay: Screening of wood-rotting fungi for degradation of the esculetin-type dioxin analogue (fluorescence of metabolites); settings: F. palustris culture; substrate 1 ppm; day 7; excitation 350 nm, emission 450 nm; control medium without fungus 1370
# Protocol: (§3) Different species of wood-rotting fungi (i.e., Grammothele fuligo WD844, Phanerochaete crassa WD1694, Phanerochaete chrysosporium ME446, Fomitopsis palustris, Coriolus versicolor, and Pleurotus pulumonairus) were used as test subjects and were screened for the ability to degrade the dioxin analogue obtained in Example 1 (esculetin-type analogue).
# (§4) Each subject fungal species, which had been pre-cultured on potato agar and stamped out of the agar using a cork borer, was inoculated onto 10 ml modified NS medium (3% glucose, 1% peptone, inorganic salts, pH 5.0) in a 100 ml Erlenmeyer flask and was cultured for 5 to 7 days at 28° C. Subsequently, a 100 μl DMSO solution containing the substrate (esculetin-type dioxin analogue obtained in Example 1) at a final concentration of 1 ppm was added to the culture. The solution was added so that the concentration of DMSO in the medium was 1%. Samples of the culture solution were collected at predetermined time intervals (i.e., 1, 3, and 5 days after the addition of the substrate). To a 100 μl portion of each sample, 1.9 ml of an alkaline buffer (100 mM glycine, 100 mM sodium hydroxide, pH 10.0) was added. The sample mixtures were then exposed to long-range UV light (365 nm) as excitation light and were visually screened for those emitting fluorescence. On day 7, the samples were irradiated with excitation light of 350 nm and, using a fluorescence spectrophotometer, the intensity of fluorescence was measured at 450 nm. A control shown in Table 1 is the above-described culture medium with only dioxin analogue (esculetin-type) added.
# [4] = system: Coriolus versicolor; assay: as above; settings: C. versicolor culture; substrate 1 ppm; day 7; excitation 350 nm, emission 450 nm; control medium without fungus 1370
# Protocol: as §3, §4
# [5] = system: Grammothele fuligo WD844; assay: as above; settings: G. fuligo WD844 culture; substrate 1 ppm; day 7; excitation 350 nm, emission 450 nm; control medium without fungus 1370
# Protocol: as §3, §4
# [6] = system: Phanerochaete crassa WD1694; assay: as above; settings: P. crassa WD1694 culture; substrate 1 ppm; day 7; excitation 350 nm, emission 450 nm; control medium without fungus 1370
# Protocol: as §3, §4
# [7] = system: Pleurotus pulumonairus; assay: as above; settings: P. pulumonairus culture; substrate 1 ppm; day 7; excitation 350 nm, emission 450 nm; control medium without fungus 1370
# Protocol: as §3, §4
# [8] = system: Phanerochaete chrysosporium ME446; assay: as above; settings: P. chrysosporium ME446 culture; substrate 1 ppm; day 7; excitation 350 nm, emission 450 nm; control medium without fungus 1370
# Protocol: as §3, §4
# [9] = system: Pleurotus pulumonairus; assay: Screening of wood-rotting fungi for degradation of the naphthalene-type dioxin analogue (visual fluorescence); settings: P. pulumonairus culture; substrate 1 ppm; samples 1, 3 and 5 days after addition; UV 365 nm; compared with the other five fungi
# Protocol: as §3, with “2 (naphthalene-type” for “1 (esculetin-type”
# as §4, with “pH5.0)” for “pH 5.0)”, “naphthalene-type” for “(esculetin-type”, “2” for “1)”, “μportion” for “μl portion”, “pH10.0)” for “pH 10.0)”, “fluorescence.” for “fluorescence. On day 7, the samples were irradiated with excitation light of 350 nm and, using a fluorescence spectrophotometer, the intensity of fluorescence was measured at 450 nm. A control shown in Table 1 is the above-described culture medium with only dioxin analogue (esculetin-type) added.”
compound,measurement,setting,value
"Clc1cc2c(cc1Cl)Oc1cc(Cl)c(Cl)cc1O2 [2,3,7,8-tetrachlorodioxin]",Degradation rate,[1],9%
same,Degradation rate,[1]; listed as dioxin,9%
same,Degradation rate,[2],31%
Cc1cc(=O)oc2cc3c(cc12)Oc1cc(Cl)c(Cl)cc1O3 [Example 1],Fluorecsence intensity,[3],1314
same,Fluorecsence intensity,[4],1601
same,Fluorecsence intensity,[5],1639
same,Fluorecsence intensity,[6],1419
same,Fluorecsence intensity,[7],2203
same,Fluorecsence intensity,[8],1619
Clc1cc2c(cc1Cl)Oc1cc3ccccc3cc1O2 [Example 2],"Fluorescence emission, visually screened",[9],most intense fluorescence emission

# From US7241905B2, “Dioxin analogues and methods and kits for searching out dioxins-decomposing organisms or enzymes or dioxin-decomposing enzyme genes” (Forestry and Forest Products Research Institute, priority 2001, dated 2007)
